According to patent publication US5155126A, “Treatment of central nervous system disorders with pyrazole, pyrrole and triazole angiotensin-II receptor antagonists” (E. I. du Pont de Nemours and Company, priority 1991, dated 1992):
Where “and” joins values, the source holds several entries; their conditions need not be identical. Equal values may be shown once. Entries after “also recorded” stand apart in the source; their conditions may differ.

Key:
[1] = test system: AII-2 receptor (AII receptor subtype-2); settings: in words; cited from earlier work
[2] = test system: renin-induced disruption of passive avoidance retention; test: Renin-disrupted passive avoidance retention; format: in vivo, male Sprague-Dawley rats; settings: for effect on memory / renin-induced amnesia: IVT, in words
Procedure: Experimentally naive male Sprague-Dawley rats […] (Charles River Breeding Laboratories, Kingston, N.Y.), weighing between 175 to 200 gm were used. The animals were housed four per cage (45.0 L × 20.0 H × 26.0 W cm) with free access to food and water. They were maintained on a 12 h light/dark cycle (lights on 0600 h) and at a room temperature of 22±1° C. with relative humidity of 50±10%.
The experimental sessions were conducted in a two-compartment passive avoidance box. One compartment, made of clear plastic with a perforated clear plastic floor, measured 21(L)=24.5(H)=17(W) cm and was illuminated with a 60 watt incandescent light bulb placed 36 cm above the floor. The other compartment, made of black plastic, measured 30.5 (L)×20.3 (H)×21.5 (W) cm with a floor made of 4 mm stainless steel rods spaced 1.2 cm apart. A grid floor shocker (Coulbourn Instruments) was connected to the steel rods and provided scrambled footshock. The two compartments were separated by a solenoid-operated slide door (Lafayette Instrument Co., Lafayette, Ind.). An electronic counter (Coulbourn Instruments), triggered by the opening or closing of the slide door, recorded acquisition and retention latencies (latencies were defined as the time it took an animal to enter the dark compartment).
Passive avoidance training began by placing the rat into the clear compartment of the two-compartment passive avoidance box. Following a 10 sec delay, the slide door to the dark compartment was raised. Once the rat moved completely into the dark compartment (all four paws on the shock grid floor) the slide door was lowered, and after a 10 sec delay, a 1.0 mA shock was applied to the grid floor for three sec. A second three s shock was delivered after an additional 10 sec delay. The rats were immediately removed from the dark compartment and returned to their home cage. A retention test was given 24 h later. It proceeded in the same manner as the training session except that no shock was applied to the grid floor when the rats were provided access to the dark compartment for a maximum of 300 sec.
All drugs were administered IVT 60 minutes prior to acquisition training in a volume of 5 μL. Doses are expressed as the free base weight of each compound.

AII-1 receptor = AII-1 receptor antagonism (statement); settings: in words
[3] = test system: AII binding sites in the brain; test: Binding of AII antagonists to sections of brain slices; settings: in words
uphill avoidance = settings: acute 30 mg/kg PO; in words; cited from earlier work
[4] = test system: scopolamine-induced PA amnesia; settings: three times per day at 1, 3 and 10 mg/kg PO; in words; cited from earlier work
[5] = test system: scopolamine-induced impairment of eight arm radial maze performance; settings: 3 mg/kg IP; in words; cited from earlier work
[6] = test system: ACh in the striatum and hypothalamus; settings: acute or repeated administration; in words; cited from earlier work
[7] = test system: memory of previously learned tasks; anticholinergic effect on performance; settings: in words; cited from earlier work
avoidance learning = settings: renin into lateral ventricle; captopril IVT prior to renin; in words; cited from earlier work
[8] = test system: light/dark habituation performance; settings: subchronic treatment; in words; cited from earlier work
[9] = test system: scopolamine-induced disruption of performance; settings: daily treatment; in words; cited from earlier work
[10] = test system: retention of a passive avoidance response; settings: injected into dorsal neostriatum; in words; cited from earlier work
[11] = test system: potassium-stimulated release of ACh in entorhinal cortex; settings: in vitro, entorhinal cortex from rat brain; in words; cited from earlier work
[12] = test system: AII in cerebrospinal fluid; settings: after renin IVT; increased from 40; cited from earlier work

O[C@H](CS)[C@H](O)CS (racemic) [DTT, dithiothreitol]
inactivation of AII-2 receptor by DTT [1]: resistant to DTT inactivation

CCCc1nc(C(F)(F)F)c(C(=O)O)n1Cc1ccc(-c2ccccc2-c2nnn[nH]2)cc1 [Compound C, 2-n-propyl-1-[(2'-(1H-tetrazol-5-yl)biphenyl-4-yl)methyl]-4-trifluoromethylimidazole-5-carboxylic acid]
effect on memory / renin-induced amnesia [2]: protected against amnesia | AII-1 receptor antagonist activity (AII-1 receptor): AII-1 receptor antagonists

CCCc1nc(C(F)(F)F)c(CO)n1Cc1ccc(-c2ccccc2-c2nnn[nH]2)cc1 [Compound D, 2-n-propyl-5-hydroxymethyl-1-[(2'-(1H-tetrazol-5-yl)biphenyl-4-yl)methyl]-4-trifluoromethylimidazole]
effect on memory / renin-induced amnesia [2]: protected against amnesia | AII-1 receptor antagonist activity (AII-1 receptor): AII-1 receptor antagonists

Cc1cc(Cn2cnc3c2CC(C(=O)O)N(C(=O)C(c2ccccc2)c2ccccc2)C3)ccc1N (stereo not shown) [EXP655, 1-(4-amino-3-methylphenyl)methyl-5-diphenylacetyl-4,5,6,7-tetrahydro-1H-imidazo[4,5-c]pyridine-6-carboxylic acid]
sensitivity of AII binding sites in brain [3]: the majority of binding sites in the brain are DTT-insensitive and EXP655-sensitive | effect on memory / renin-induced amnesia [2]: less effective in preventing amnesia

CCOC(=O)C(CCc1ccccc1)NC(C)C(=O)N1CC2(CC3CCC2CC3)CC1C(=O)O (stereo not shown) [Hoe 288]
performance during retention testing, uphill avoidance (uphill avoidance): improved performance during retention testing | effect on scopolamine-induced PA amnesia [4]: partially reversed the amnesia | effect of muscarinic receptor blockade on performance [5]: partially antagonized the effects of muscarinic receptor blockade | change of ACh in striatum and hypothalamus [6]: significant decrease in ACh

NCCCC[C@H](OP(=O)(O)CCCCc1ccccc1)C(=O)N1CCC[C@H]1C(=O)O [SQ 29852]
effect on anticholinergic effect on performance [7]: ameliorate, at least in part | effect on memory of previously learned tasks [7]: protective effects on memory of previously learned tasks

C[C@H](CS)C(=O)N1CCC[C@H]1C(=O)O [captopril]
effect on memory / renin-induced amnesia [2]: prevented | effect on avoidance learning (avoidance learning): prevented the renin-induced avoidance disruption | rate of acquisition of light/dark habituation performance [8]: increased the rate of acquisition | scopolamine-induced disruption of performance [9]: prevented

NC(=O)[C@@H]1CCCN1C(=O)[C@H](Cc1cnc[nH]1)NC(=O)[C@@H]1CCC(=O)N1 [thyrotropin releasing hormone]
effect on retention of a PA response [10]: no effect

AI: printed "AI, but not AI" in b14 (DRVYIHPFHL; Angiotensin-1; UniProt P01019 25-34, looked up)
effect on potassium-stimulated release of ACh [11]: reduced potassium-stimulated release of ACh without effects on basal levels

AII: Angiotensin-II, a circulating hormone thought to act as a neuropeptide in the CNS (DRVYIHPF; Angiotensin-2; UniProt P01019 25-32, looked up)
effect on retention of a PA response [10]: disruption in retention of a PA response | effect on potassium-stimulated release of ACh [11]: can inhibit the release of ACh

[1-sarcosine, 8-threonine]angiotensin-II
effect on potassium-stimulated release of ACh [11]: antagonized

lysine-8-vasopressin
effect on retention of a PA response [10]: no effect

B1: renin: Renin (Sigma Chemicals), a stimulator of endogenous AII biosynthesis (protein, UniProt P00797 67-406, looked up)
Renin: LTLGNTTSSVILTNYMDTQYYGEIGIGTPPQTFKVVFDTGSSNVWVPSSKCSRLYTACVYHKLFDASDSSSYKHNGTELTLRYSTGTVSGFLSQDIITVGGITVTQMFGEVTEMPALPFMLAEFDGVVGMGFIEQAIGRVTPIFDNIISQGVLKEDVFSFYYNRDSENSQSLGGQIVLGGSDPQHYEGNFHYINLIKTGVWQIQMKGVSVGSSTLLCEDGCLALVDTGASYISGSTSSIEKLMEALGAKKRLFDYVVKCNEGPTLPDISFHLGGKEYTLTSADYVFQESYSSKKLCTLAIHAMDIPPPTGPTWALGATFIRKFYTEFDRRNNRIGFALAR
effect on memory / renin-induced amnesia [2]: produces memory deficit; also recorded: dose-related amnesia | Median Retention Latency ([2]; renin 1.0 μg/5 μL IVT alone): 48 s and 32 s and 27 s | Median Retention Latency ([2]; renin 5.0 μg/5 μL IVT alone): 17 s | effect on avoidance learning (avoidance learning): disruption of avoidance learning | AII in cerebrospinal fluid [12]: about 5000 fmol per mL
